Values quoted from earlier work as cited in US20240390871A1, “Production of encapsulated nanoparticles at high volume fractions” (iCeutica Pty Ltd., priority 2009, published 2024).

Settings: previous animal studies; reducing the size of metaxalone

## Cc1cc(C)cc(OCC2CNC(=O)O2)c1 (stereo not shown) [metaxalone]
  rates of absorption and overall bioavailability (as measured by AUC): much higher rates of absorption and overall bioavailability
